What was measured:
Assay in all cases: relative viability (nuclei count vs DMSO), 5 days (fraction); higher = more cells survive
HCC-44 = tested on: HCC-44
Method in brief: (§1)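 Lung cancer cell lines in 1536-well plates got either a single drug or a fixed anchor-drug dose together with five library-drug doses (not always all listed) in √10 steps, by pin tool, on the day after seeding. Nuclei were counted after 5 days, and relative viability is the treated-to-vehicle ratio of nuclei counts. Values are medians of duplicate plates.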

SW 1573 = tested on: SW 1573
Method in brief: as §1

NCI-H1650 = tested on: NCI-H1650
Method in brief: as §1

NCI-H23 = tested on: NCI-H23
Method in brief: as §1

NCI-H1563 = tested on: NCI-H1563
Method in brief: as §1

H3255 = tested on: H3255
Method in brief: as §1

NCI-H596 = tested on: NCI-H596
Method in brief: as §1

NCI-H2347 = tested on: NCI-H2347
Method in brief: as §1

PC-3 [JPC-3] = tested on: PC-3 [JPC-3]
Method in brief: as §1

LK-2 = tested on: LK-2
Method in brief: as §1

LU99A = tested on: LU99A
Method in brief: as §1

NCI-H727 = tested on: NCI-H727
Method in brief: as §1

A-427 = tested on: A-427
Method in brief: as §1

COR-L23 = tested on: COR-L23
Method in brief: as §1

LC-2-ad = tested on: LC-2-ad
Method in brief: as §1

PC-14 = tested on: PC-14
Method in brief: as §1

NCI-H1793 = tested on: NCI-H1793
Method in brief: as §1

NCI-H460 = tested on: NCI-H460
Method in brief: as §1

201T = tested on: 201T
Method in brief: as §1

LCLC-97TM1 = tested on: LCLC-97TM1
Method in brief: as §1

NCI-H2228 = tested on: NCI-H2228
Method in brief: as §1

O=c1cc(N2CCOCC2)oc2c(-c3cccc4c3sc3ccccc34)cccc12 + CS(=O)(=O)CCNCc1ccc(-c2ccc3ncnc(Nc4ccc(OCc5cccc(F)c5)c(Cl)c4)c3c2)o1 [Lapatinib] (partner 2 µM)
relative viability (HCC-44; first compound 0.01 µM): 1.01 | relative viability (HCC-44; first compound 0.03162 µM): 0.995 | relative viability (HCC-44; first compound 0.1 µM): 1.11 | relative viability (HCC-44; first compound 0.3162 µM): 0.946 | relative viability (HCC-44; first compound 1 µM): 1.07 | relative viability (SW 1573; first compound 0.01 µM): 0.21 | relative viability (SW 1573; first compound 0.03162 µM): 1.22 | relative viability (SW 1573; first compound 0.1 µM): 1.06 | relative viability (SW 1573; first compound 0.3162 µM): 1.07 | relative viability (SW 1573; first compound 1 µM): 1.14 | relative viability (NCI-H1650; first compound 0.03162 µM): 0.831 | relative viability (NCI-H1650; first compound 0.1 µM): 0.775 | relative viability (NCI-H1650; first compound 0.3162 µM): 0.756 | relative viability (NCI-H1650; first compound 1 µM): 0.75 | relative viability (NCI-H23; first compound 0.01 µM): 0.992 | relative viability (NCI-H23; first compound 0.03162 µM): 1.09 | relative viability (NCI-H23; first compound 0.3162 µM): 1.1 | relative viability (NCI-H23; first compound 1 µM): 1.22 | relative viability (NCI-H1563; first compound 0.01 µM): 1.27 | relative viability (NCI-H1563; first compound 0.03162 µM): 0.995 | relative viability (NCI-H1563; first compound 0.1 µM): 1.04 | relative viability (NCI-H1563; first compound 0.3162 µM): 0.762 | relative viability (NCI-H1563; first compound 1 µM): 0.782 | relative viability (H3255; first compound 0.01 µM): 0.222 | relative viability (H3255; first compound 0.03162 µM): 0.286 | relative viability (H3255; first compound 0.1 µM): 0.258 | relative viability (H3255; first compound 0.3162 µM): 0.225 | relative viability (H3255; first compound 1 µM): 0.248 | relative viability (NCI-H596; first compound 0.01 µM): 1.11 | relative viability (NCI-H596; first compound 0.03162 µM): 1.16 | relative viability (NCI-H596; first compound 0.1 µM): 1.06 | relative viability (NCI-H596; first compound 0.3162 µM): 1.16 | relative viability (NCI-H596; first compound 1 µM): 1.16 | relative viability (NCI-H2347; first compound 0.01 µM): 0.953 | relative viability (NCI-H2347; first compound 0.03162 µM): 0.965 | relative viability (NCI-H2347; first compound 0.1 µM): 0.93 | relative viability (NCI-H2347; first compound 0.3162 µM): 0.942 | relative viability (NCI-H2347; first compound 1 µM): 0.973 | relative viability (PC-3 [JPC-3]; first compound 0.01 µM): 0.492 | relative viability (PC-3 [JPC-3]; first compound 0.03162 µM): 0.435 | relative viability (PC-3 [JPC-3]; first compound 0.1 µM): 0.462 | relative viability (PC-3 [JPC-3]; first compound 0.3162 µM): 0.421 | relative viability (PC-3 [JPC-3]; first compound 1 µM): 0.423 | relative viability (LK-2; first compound 0.01 µM): 0.832 | relative viability (LK-2; first compound 0.03162 µM): 0.986 | relative viability (LK-2; first compound 0.1 µM): 1.12 | relative viability (LK-2; first compound 0.3162 µM): 0.909 | relative viability (LK-2; first compound 1 µM): 1.07 | relative viability (LU99A; first compound 0.01 µM): 1.11 | relative viability (LU99A; first compound 0.03162 µM): 1.04 | relative viability (LU99A; first compound 0.1 µM): 0.921 | relative viability (LU99A; first compound 0.3162 µM): 1.02 | relative viability (LU99A; first compound 1 µM): 1.07 | relative viability (NCI-H727; first compound 0.01 µM): 0.835 | relative viability (NCI-H727; first compound 0.03162 µM): 0.973 | relative viability (NCI-H727; first compound 0.1 µM): 0.925 | relative viability (NCI-H727; first compound 0.3162 µM): 0.717 | relative viability (NCI-H727; first compound 1 µM): 0.954 | relative viability (A-427; first compound 0.01 µM): 1.12 | relative viability (A-427; first compound 0.03162 µM): 1.01 | relative viability (A-427; first compound 0.1 µM): 0.982 | relative viability (A-427; first compound 0.3162 µM): 1.01 | relative viability (A-427; first compound 1 µM): 1.05 | relative viability (COR-L23; first compound 0.01 µM): 1.01 | relative viability (COR-L23; first compound 0.03162 µM): 0.823 | relative viability (COR-L23; first compound 0.1 µM): 0.924 | relative viability (COR-L23; first compound 0.3162 µM): 0.843 | relative viability (COR-L23; first compound 1 µM): 1 | relative viability (LC-2-ad; first compound 0.01 µM): 1.06 | relative viability (LC-2-ad; first compound 0.1 µM): 1.03 | relative viability (LC-2-ad; first compound 0.3162 µM): 0.898 | relative viability (LC-2-ad; first compound 1 µM): 1.02 | relative viability (PC-14; first compound 0.01 µM): 0.331 | relative viability (PC-14; first compound 0.03162 µM): 0.32 | relative viability (PC-14; first compound 0.1 µM): 0.272 | relative viability (PC-14; first compound 0.3162 µM): 0.308 | relative viability (PC-14; first compound 1 µM): 0.302 | relative viability (NCI-H1793; first compound 0.01 µM): 0.707 | relative viability (NCI-H1793; first compound 0.03162 µM): 0.824 | relative viability (NCI-H1793; first compound 0.1 µM): 0.656 | relative viability (NCI-H1793; first compound 0.3162 µM): 0.499 | relative viability (NCI-H1793; first compound 1 µM): 0.45 | relative viability (NCI-H460; first compound 0.01 µM): 0.926 | relative viability (NCI-H460; first compound 0.03162 µM): 1.07 | relative viability (NCI-H460; first compound 0.1 µM): 1.09 | relative viability (NCI-H460; first compound 0.3162 µM): 0.807 | relative viability (NCI-H460; first compound 1 µM): 1.11 | relative viability (201T; first compound 0.01 µM): 1.11 | relative viability (201T; first compound 0.03162 µM): 1.03 | relative viability (201T; first compound 0.1 µM): 1.06 | relative viability (201T; first compound 0.3162 µM): 0.997 | relative viability (201T; first compound 1 µM): 0.968 | relative viability (LCLC-97TM1; first compound 0.01 µM): 1.09 | relative viability (LCLC-97TM1; first compound 0.03162 µM): 1.57 | relative viability (LCLC-97TM1; first compound 0.3162 µM): 1.13 | relative viability (LCLC-97TM1; first compound 1 µM): 0.727 | relative viability (NCI-H2228; first compound 0.03162 µM): 0.978 | relative viability (NCI-H2228; first compound 0.1 µM): 1.03 | relative viability (NCI-H2228; first compound 0.3162 µM): 1.23 | relative viability (NCI-H2228; first compound 1 µM): 1.19
